Measured values: patent US20030144345A1, “Treatment of metabolic diseases with soraphen derivatives” (priority 2001, published 2003)
Like-named read-outs stand apart in the source and are kept apart here.

Columns and labels:
HepG2 cells = test: Fatty acid (palmitate) oxidation assay with human liver hepatoma cells HepG2; type: cell-based; conditions: for Stimulation of palmitate / fatty acid oxidation (in words): HepG2
Experimental: For routine passaging, HepG2 cells (American Type Culture Collection, ATCC) were grown in T75 flasks (Falcon, #353136) in 15 ml of Dulbecco's modified Eagle medium (DMEM, Sigma, #D5796), containing 10% heat inactivated fetal bovine serum (FBS, Summit Biotechnology, #S-100-05) and 1% Penicillin/Streptomycin (Sigma, #P4333). […] The cells were passaged once per week by trypsinization and an additional change of medium was done after 3 to 4 days after passaging.

differentiated L6 cells [1] = test system: differentiated L6 cells;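 further: differentiated rat L6 myotubes fed [14C]-palmitate, with oxidation read as 14CO2 trapped on filters and counted by liquid scintillation after 3 to 8 h at 37 °C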
Experimental: (§1) Labeling medium to assay oxidation of fatty acids was composed of glucose-deficient DMEM containing 3.7 g/l NaHCO3, 25 mM HEPES-NaOH, 0.5% fatty acid-free bovine serum albumin (BSA), 0.1% ethanol, 0.5% DMSO (or test compounds dissolved in DMSO), 5 mM D-glucose, and 16 μM unlabeled palmitate plus 0.25 μM [U-^14C]palmitate (approx. 800 mCi/mmol). After the addition of labeling medium, the cell culture plates were sealed air tight with self adhesive Super Sealing Film (Life Systems Design, #02-2796-3001). Before sealing, twelve 1 cm^2 squares of filter paper (Schleicher & Schuell, #GB004) pretreated with 50 μl of highly basic tissue solubilizer solution NCSII (Amersham Pharmacia, #NNCS-502) were attached to the lower side of the sealing film. Upon sealing of the tissue culture plates, the filters were positioned in the center above each well, and served to capture the evolving ^14CO2 that was produced by the cells in each individual well. After an incubation between 3 to 8 hours at 37° C., the filters were removed from the sealing film and the captured ^14CO2 was quantitated by liquid scintillation counting with 2 ml of scintillation cocktail BCS-NA (Amersham Pharmacia, #NBCS204) in a Tri-Carb liquid scintillation counter (Canberra Packard).
(§2) Cultivation of the differentiating rat muscle cell line L6 for fatty acid oxidation assays was performed as follows. For routine passaging, L6 cells (ATCC) were grown in T75 flasks in 15 ml of MEM Alpha medium (Gibco BRL Life Technologies, #22571-038), containing 10% heat inactivated FBS and 1% antibiotic/antimycotic solution (Gibco BRL Life Technologies, #15240-062). Incubation was done at 37° C. in a humid atmosphere containing 5% CO2. The cells were passaged twice per week by trypsinization.
(§3) For fatty acid oxidation assays, each well of a 12-well tissue culture plate was seeded with 2 to 5×10^4 cells in 1 ml of MEM Alpha, 10% FBS, 1% antibiotic/antimycotic solution. After 3 days, medium was exchanged by 1 ml of the same, fresh medium. After 5 days, medium was exchanged again, this time by 1 ml of medium containing 2% FBS, 1% antibiotic/antimycotic solution. After 7 days, the cells were fully differentiated and formed large multinucleated myotubes. At this stage, the medium was replaced by 1 ml of glucose-deficient DMEM supplemented with 3.7 g/l NaHCO3 and 25 mM HEPES-NaOH followed by a starvation period of 2 to 6 hours at 37° C. […] The compounds were tested at three different concentrations (2, 0.2 and 0.02 μM) on differentiated L6 cells.

human ACCβ enzyme = target: T1, human ACCβ enzyme (Homo sapiens, UniProt O00763); test: Human ACCβ enzyme activity / inhibition assay (radiometric); type: biochemical; conditions: for IC50: purified recombinant human ACCβ, saturating substrate concentrations, read-out: IC50 against purified ACCβ enzyme; for Effect on K0.5 of K-citrate / Effect on Vmax of the ACC enzyme reaction: titration of compound at 0.5, 1 and 2 times IC50
T1 construct: The cloning of the full length human muscle-type ACCβ cDNA and expression in HEK293 cells; made in house; host or cells: HEK293 cells (ATCC CRL-1573), plasmid pRF33D
Experimental: The cloning of the full length human muscle-type ACCβ cDNA and expression in HEK293 cells (ATCC, #CRL-1573) was performed as follows. The ACCβ cDNA was amplified by the polymerase chain reaction (PCR) and was cloned using standard recombinant DNA techniques. The PCR reaction was performed with the Expand Long Template PCR System (Roche Molecular Biochemicals, #1 681 8340) and 0.5 ng of cDNA from human skeletal muscle as template. The primers used for PCR amplification were designed on the basis of the published sequence of the human ACCβ cDNA isolated from a human liver cDNA library (Abul-Elheiga et al. J. Biol Chem. 272, 10669-10677, 1997). The sequence of the forward primer ACCB1 was 5′-[…]-3′; it includes a NheI restriction cleavage site for subcloning and a Kozak translation initiation consensus sequence preceding the ATG start codon. The sequence of the reverse primer ACCB8 was 5′-[…]-3′; it includes a stop codon and a XhoI restriction cleavage site for subcloning. The amplified DNA fragment of approximately 7.4 kb was cloned into a mammalian expression vector. The resulting plasmid isolates, pRF33A, B, C, D, and E were individually transfected in human embryonic kidney 293 cells (HEK293) using a standard lipid transfection method. Cell extracts of transfected cells were prepared in a lysis buffer containing 0.4 mg/ml digitonin and enzyme activity was determined using a radiometric ACC activity assay as described below. Plasmid pRF33D gave the highest activity and was chosen for large scale transfections of HEK293 cells and enzyme purification.
Since ACC enzyme activities in crude cell lysates were very low, enrichment of ACCβ enzyme expressed in HEK293 cells was achieved by a single anion exchange chromatography step. Cell lysates were run over a 5 ml Econo Pac High Q column (Bio-Rad, #732-0027). Bound proteins were eluted by a gradient of NaCl from 0 to 1 M in 50 mM Tris-HCl, pH 7.5, 1 mM DTT, 5% glycerol. Fractions containing high ACCβ enzyme activity were pooled and stored at −20° C.
Standard ACCβ enzyme assays, in a total volume of 100 μl, contained 50 mM HEPES-KOH, pH 7.5, 10 mM K-citrate, 10 mM MgSO4, 1 mM ATP, 0.1 mM DTT, 2% DMSO, 0.1 mg/ml fatty acid-free BSA, 0.2 mM acetyl-CoA, 2 mM KHCO3, 0.2 mM [^14C]NaHCO3 (50-60 mCi/mmol) and cell lysate or purified ACCβ enzyme. Reactions were incubated at 37° C. for 45 min. and stopped by the addition of 50 μl of 2 N HCl. Terminated reactions were incubated at 50° C. over night to evaporate non-incorporated [^14C]NaHCO3. [^14C]-labeled malonyl-CoA reaction product was quantitated by liquid scintillation counting after the addition of 20 μl of Microscint 20 (Canberra Packard, #6013621) on a TopCount NXT microplate scintillation counter (Canberra Packard).
Inhibition of ACCβ activity was determined at saturating substrate concentrations with two-fold serial dilutions of test compounds spanning a concentration range of at least two log units. IC50 values were calculated with the GraFit software (Erithacus Software Ltd.). Kinetic parameters (Km, Vmax and K0.5) were determined by varying one substrate (or allosteric effector) in a two-fold serial dilution over a concentration range of at least two log units while keeping all other substrates at constant saturating concentrations. Fitting to the Michaelis-Menten equation (for calculation of Km of substrates) and fitting to the Hill equation (for calculation of K0.5of the allosteric activator K-citrate) was done with the GraFit software. To determine the mode of action of Soraphens, determinations of Km for ATP and acetyl-CoA and of K0.5 for K-citrate were repeated in the absence and in the presence of the three different Soraphens at 0.5, 1 and 2 times their IC50 and the data were fitted to the equation for non-competitive inhibition with the GraFit software.

differentiated L6 cells [2] = test: Fatty acid (palmitate) oxidation assay with differentiated rat L6 muscle cells;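 further: differentiated rat L6 myotubes fed [14C]-palmitate, with oxidation read as 14CO2 trapped on filters and counted by liquid scintillation after 3 to 8 h at 37 °C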
Experimental: as §1, §2, §3

T1 sequence (O00763 whole entry): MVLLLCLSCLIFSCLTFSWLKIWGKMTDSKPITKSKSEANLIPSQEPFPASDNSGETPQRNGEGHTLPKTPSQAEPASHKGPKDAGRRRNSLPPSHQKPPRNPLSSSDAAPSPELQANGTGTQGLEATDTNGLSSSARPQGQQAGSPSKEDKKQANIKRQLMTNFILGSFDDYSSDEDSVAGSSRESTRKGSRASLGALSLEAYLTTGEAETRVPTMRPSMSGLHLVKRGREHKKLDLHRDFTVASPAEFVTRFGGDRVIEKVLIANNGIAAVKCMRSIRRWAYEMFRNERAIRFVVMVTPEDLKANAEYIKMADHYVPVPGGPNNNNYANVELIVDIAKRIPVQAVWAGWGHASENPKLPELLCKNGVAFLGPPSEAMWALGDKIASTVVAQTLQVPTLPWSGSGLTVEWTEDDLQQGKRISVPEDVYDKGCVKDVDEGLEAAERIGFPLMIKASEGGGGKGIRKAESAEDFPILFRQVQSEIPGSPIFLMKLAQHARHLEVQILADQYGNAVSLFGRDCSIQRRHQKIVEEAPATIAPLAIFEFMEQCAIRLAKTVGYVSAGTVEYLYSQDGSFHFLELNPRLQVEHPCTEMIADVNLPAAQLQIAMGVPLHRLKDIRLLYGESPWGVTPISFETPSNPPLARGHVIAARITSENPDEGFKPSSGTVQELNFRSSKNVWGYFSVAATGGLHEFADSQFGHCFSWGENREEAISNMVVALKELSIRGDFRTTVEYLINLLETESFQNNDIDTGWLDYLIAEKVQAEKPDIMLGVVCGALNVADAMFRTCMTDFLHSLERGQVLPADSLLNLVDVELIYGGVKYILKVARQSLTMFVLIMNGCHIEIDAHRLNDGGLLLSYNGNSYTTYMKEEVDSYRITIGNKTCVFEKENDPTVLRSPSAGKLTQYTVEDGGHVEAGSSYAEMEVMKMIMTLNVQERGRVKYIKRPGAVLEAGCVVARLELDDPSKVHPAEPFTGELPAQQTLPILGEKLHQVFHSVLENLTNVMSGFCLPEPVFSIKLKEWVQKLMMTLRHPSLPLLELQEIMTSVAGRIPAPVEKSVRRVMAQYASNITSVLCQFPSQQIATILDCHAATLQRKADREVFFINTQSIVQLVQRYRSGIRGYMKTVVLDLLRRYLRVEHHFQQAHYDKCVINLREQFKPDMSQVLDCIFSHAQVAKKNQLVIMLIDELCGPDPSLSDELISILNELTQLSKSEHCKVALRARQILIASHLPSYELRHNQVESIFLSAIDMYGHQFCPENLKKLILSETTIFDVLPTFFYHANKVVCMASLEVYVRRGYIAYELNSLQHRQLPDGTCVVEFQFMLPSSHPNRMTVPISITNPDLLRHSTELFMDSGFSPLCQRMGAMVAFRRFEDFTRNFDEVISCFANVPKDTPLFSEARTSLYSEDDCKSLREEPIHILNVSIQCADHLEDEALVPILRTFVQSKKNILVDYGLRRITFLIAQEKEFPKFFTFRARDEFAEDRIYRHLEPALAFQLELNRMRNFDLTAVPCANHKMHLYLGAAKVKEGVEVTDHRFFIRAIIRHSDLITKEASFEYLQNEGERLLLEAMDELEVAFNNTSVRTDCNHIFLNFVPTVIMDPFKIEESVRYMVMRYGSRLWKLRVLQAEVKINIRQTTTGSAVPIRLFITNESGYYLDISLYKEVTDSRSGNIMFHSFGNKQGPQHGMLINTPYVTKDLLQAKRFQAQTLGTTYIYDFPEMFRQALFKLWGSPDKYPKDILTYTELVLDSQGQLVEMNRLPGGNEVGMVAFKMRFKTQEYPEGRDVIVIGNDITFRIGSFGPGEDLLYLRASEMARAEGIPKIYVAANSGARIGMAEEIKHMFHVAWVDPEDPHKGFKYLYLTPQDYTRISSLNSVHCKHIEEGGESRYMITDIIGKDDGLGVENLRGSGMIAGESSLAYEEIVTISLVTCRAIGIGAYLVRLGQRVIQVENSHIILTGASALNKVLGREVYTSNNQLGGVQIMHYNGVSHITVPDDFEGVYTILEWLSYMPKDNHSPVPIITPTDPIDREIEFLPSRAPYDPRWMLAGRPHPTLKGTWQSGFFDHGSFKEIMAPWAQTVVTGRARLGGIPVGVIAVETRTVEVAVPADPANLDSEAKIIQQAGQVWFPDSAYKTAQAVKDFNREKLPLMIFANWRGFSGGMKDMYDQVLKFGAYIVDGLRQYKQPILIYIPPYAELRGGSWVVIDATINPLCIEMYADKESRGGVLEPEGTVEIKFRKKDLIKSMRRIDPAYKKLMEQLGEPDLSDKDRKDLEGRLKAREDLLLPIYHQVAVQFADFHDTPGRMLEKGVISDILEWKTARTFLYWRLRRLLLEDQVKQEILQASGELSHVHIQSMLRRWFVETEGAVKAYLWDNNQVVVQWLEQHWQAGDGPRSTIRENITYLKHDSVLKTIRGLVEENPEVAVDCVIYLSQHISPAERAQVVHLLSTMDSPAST

SMILES	Fold stimulation over palmitate oxidation rate in the absence of test compounds (HepG2 cells; HepG2, 10 μM) [fold]	Palmitate oxidation rate (HepG2 cells; HepG2, 10 μM)	IC50 (human ACCβ enzyme) [nM]	Effect on K0.5 of K-citrate (human ACCβ enzyme)	Effect on Vmax of the ACC enzyme reaction (human ACCβ enzyme)	Stimulation of palmitate / fatty acid oxidation (in words) (HepG2 cells)	Fold stimulation over palmitate oxidation rate in the absence of test compounds (HepG2 cells; HepG2, 25 μM) [fold]	Palmitate oxidation rate (HepG2 cells; HepG2, 25 μM)	further results
CO[C@@H]1[C@@H](O)[C@H](C)[C@H]2OC1(O)[C@H](C)C(=O)O[C@H](c1ccccc1)CCCC[C@H](O)[C@H](O)/C=C/[C@@H]2C [Cpd (Ib), Soraphen A 4-α]	2.8	10.8 +/− 0.4 pmol · h^−1 · well^−1	200	did not change	dose-dependent decrease	–	–	–	Fold stimulation (differentiated L6 cells [1]; L6, Table 2, 0.02 μM): 1.0 fold; Palmitate oxidation rate (differentiated L6 cells [1]; L6, Table 2, 0.02 μM): 8.8 +/− 0.3 pmol · h^−1 · well^−1; Fold stimulation (differentiated L6 cells [1]; L6, Table 2, 0.2 μM): 1.1 fold; Palmitate oxidation rate (differentiated L6 cells [1]; L6, Table 2, 0.2 μM): 10.0 +/− 1.4 pmol · h^−1 · well^−1; Fold stimulation (differentiated L6 cells [1]; L6, Table 2, 2 μM): 1.5 fold; Palmitate oxidation rate (differentiated L6 cells [1]; L6, Table 2, 2 μM): 13.5 +/− 1.4 pmol · h^−1 · well^−1
CO[C@H]1CC(O)CC[C@@H](c2ccccc2)OC(=O)[C@@H](C)C2(O)O[C@H]([C@@H](C)[C@H](O)[C@H]2OC)[C@@H](C)/C=C/[C@H]1O (stereo partly drawn) [Cpd (Ic), Soraphen B 2-α]	1.6	6.1 +/− 0.4 pmol · h^−1 · well^−1	1750	did not change	dose-dependent decrease	–	–	–	Fold stimulation (differentiated L6 cells [2]; L6, Table 2, 0.02 μM): 0.9 fold; Palmitate oxidation rate (differentiated L6 cells [2]; L6, Table 2, 0.02 μM): 8.2 +/− 0.5 pmol · h^−1 · well^−1; Fold stimulation (differentiated L6 cells [2]; L6, Table 2, 0.2 μM): 1.0 fold; Palmitate oxidation rate (differentiated L6 cells [2]; L6, Table 2, 0.2 μM): 8.8 +/− 0.5 pmol · h^−1 · well^−1; Fold stimulation (differentiated L6 cells [2]; L6, Table 2, 2 μM): 1.1 fold; Palmitate oxidation rate (differentiated L6 cells [2]; L6, Table 2, 2 μM): 10.2 +/− 1.3 pmol · h^−1 · well^−1
CCCC(=NOCC)C1=C(O)CC(C2CCCSC2)CC1=O (stereo not shown) [Cycloxidim, 2-(1-Ethoxyimino-butyl)-3-hydroxy-5-(tetrahydro-thiopyran-3-yl)-cyclohex-2-enone]	–	–	–	–	–	did not stimulate	0.9	3.5 +/− 0.2 pmol · h^−1 · well^−1	–
CC(Oc1ccc(Oc2ccc(Cl)cc2Cl)cc1)C(=O)O (stereo not shown) [Diclofop, 2-[p-(2,4-Dichlorophenoxy)phenoxy]propionic acid]	–	–	–	–	–	did not stimulate	0.8	3.1 +/− 1.3 pmol · h^−1 · well^−1	–
CC(Oc1ccc(Oc2ncc(C(F)(F)F)cc2Cl)cc1)C(=O)O (stereo not shown) [Haloxyfop, 2-[4-(3-chloro-5-trifluormethyl-2-pyridinyloxy)phenoxy] propionic acid]	–	–	–	–	–	did not stimulate	1.0	3.6 +/− 0.4 pmol · h^−1 · well^−1	–
CCCCCCCCCCCCCCOc1ccc(C(=O)O)o1 [TOFA, 5-(Tetradecyloxy)-2-furoic acid, reference compound]	–	–	–	–	–	–	2.1	8.1 +/− 0.7 pmol · h^−1 · well^−1	Fold stimulation (differentiated L6 cells [2]; L6, Table 3, 0.25 μM): 1.1 fold; Palmitate oxidation rate (differentiated L6 cells [2]; L6, Table 3, 0.25 μM): 5.8 +/− 0.4 pmol · h^−1 · well^−1; Fold stimulation (differentiated L6 cells [2]; L6, Table 3, 2.5 μM): 1.5 fold; Palmitate oxidation rate (differentiated L6 cells [2]; L6, Table 3, 2.5 μM): 8.0 +/− 0.7 pmol · h^−1 · well^−1; Fold stimulation (differentiated L6 cells [2]; L6, Table 3, 25 μM): 1.3 fold; Palmitate oxidation rate (differentiated L6 cells [2]; L6, Table 3, 25 μM): 7.2 +/− 0.3 pmol · h^−1 · well^−1; Maximal stimulation of palmitate oxidation (differentiated L6 cells [2]; differentiated L6 cells, up to 25 μM): 1.5 fold
